{"source": "paper PMC4302242", "about": "(Psychopharmacology, 2014)", "key": {"[1]": {"molecular_target": "T1, human TREK-1 channel (Homo sapiens, UniProt O95069)", "T1 sequence (O95069 whole entry)": "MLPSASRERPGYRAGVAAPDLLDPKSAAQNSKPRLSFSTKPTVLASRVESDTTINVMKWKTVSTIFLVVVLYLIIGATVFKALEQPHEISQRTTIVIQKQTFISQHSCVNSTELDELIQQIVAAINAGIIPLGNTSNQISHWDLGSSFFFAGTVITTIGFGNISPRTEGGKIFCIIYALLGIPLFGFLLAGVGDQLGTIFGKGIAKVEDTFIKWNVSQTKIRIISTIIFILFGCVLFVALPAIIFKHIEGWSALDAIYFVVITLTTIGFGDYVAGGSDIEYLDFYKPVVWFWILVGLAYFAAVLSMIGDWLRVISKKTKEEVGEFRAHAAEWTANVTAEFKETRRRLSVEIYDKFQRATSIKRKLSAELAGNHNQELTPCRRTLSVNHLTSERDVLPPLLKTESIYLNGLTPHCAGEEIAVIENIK", "conditions": "h-TREK-1/HEK cells, current at 0 mV, n = 10 to 12", "method": "(§1) The human-TREK-1/HEK293 cell line (h-TREK-1/HEK) (Moha ou Maati et al. [2011a]) and HEK-IKS cell line (Ducroq et al. [2010]) were grown in the presence of 0.5 mg/mL G418 in Dulbecco’s modified Eagle’s medium supplemented with 10 % (v/v) heat-inactivated fetal bovine serum containing 1 % (v/v) penicillin/streptomycin in an atmosphere of 95 % air/5 % CO2 as previously described (Moha ou Maati et al. [2011a]).\n(§2) All electrophysiological experiments were performed on h-TREK-1/HEK cells seeded at a density of 20,000 cells/35 mm dish after 2–6 days of culture. All electrophysiological recordings were performed in whole cell configuration of the patch clamp technique except for IKS measures which were obtained by using the patch clamp perforated configuration (amphotericin B 0.9 mg/mL in the pipette medium) (Moha ou Maati et al. [2011b]). Each current was evaluated by using a RK 400 patch clamp amplifier (Axon Instrument, USA), low-pass filtered at 3 kHz, and digitized at 10 kHz using a 12-bit analog-to-digital converter digidata (1322 series, Axon Instrument, USA). All current amplitudes are expressed in current densities. Results are expressed as mean ± standard error of the mean (SEM). […] The bath solution contained (in mM) 150 NaCl, 5 KCl, 3 MgCl2, 1 CaCl2, and 10 4-(2-hydroxyethyl)piperazine 1- ethane sulfonic acid (HEPES) adjusted to pH 7.4 with NaOH. The pipette solution contained (in mM) 155 KCl, 3 MgCl2, 5 EGTA, and 10 HEPES adjusted to pH 7.2 with KOH. TREK-1 currents were evaluated at room temperature (21–22 °C) in the presence of a cocktail of potassium channel inhibitors (K^+ blockers, 3 mM 4-aminopyridine (4-AP), 10 mM tetraethylammonium (TEA), 10 μM glibenclamide, 100 nM apamin, and 50 nM charybdotoxin). Stimulation protocols and data acquisition were carried out using a microcomputer (Dell Pentium) with a commercial software and hardware (pClamp 8.2). Currents were recorded by voltage clamp steps to membrane potentials of −100 to +60 mV in 20-mV steps applied from a holding potential of −80 mV. The duration of depolarization pulses was 825 ms, and the pulse cycling rate was 5 s. TREK-1 current amplitudes were evaluated at the end of stimulation pulses. Cells were continuously superfused with microperfusion system.\n(§3) All experiments were performed on h-TREK-1/HEK cell line in the presence of a mixture of K^+ channels blockers and by using the whole cell configuration of the patch clamp technique. a Control currents (black-filled circles, K^+ blockers) were amplified by the application of 10 μM of arachidonic acid (white-filled circles, K^+ blockers + AA)."}, "[2]": {"test_system": "C57Bl/6J mice", "conditions": "for FST immobility time, subchronic treatment: 10 μg/kg i.v. once a day for 4 days, test on day 5, mean ± SEM, saline 161.80 ± 8.12 s; for FST immobility time, acute treatment: 10 μg/kg single i.v. bolus, 30 min before the test, saline 166.13 ± 5.54 s; for FST immobility time, acute treatment / FST immobility time 1 h after injection (action duration): n = 10, mean ± SEM; for FST immobility time 1 h after injection (action duration): naïve mice at each time; for FST immobility time 1 h after injection (action duration) / FST immobility time 16 h after injection (action duration): saline 170.3 ± 4.5 s (spadin series), 162.7 ± 4.7 s (analog series); for FST immobility time 16 h after injection (action duration): naïve mice, mean ± SEM", "method": "Naïve male C57Bl/6J mice from 7 to 9 weeks old were used in all experiments (Janvier Laboratory, Saint Berthevin, France). Mice were housed (10 animals per cage) under a 12:12 light–dark cycle (light on at 8:00 am) in a ventilated room at a temperature of 22 ± 1 °C. Animals had free access to water and food (A03; SAFE, Augy, France). All experiments were conducted according to policies on the care and use of laboratory animals of the Society for Neuroscience and also with respect to national laws on animal use.\n(§4) For acute treatment, drugs were administered in a single 100-μL bolus 30 min prior to the beginning of the behavioral tests. For subchronic treatment, drugs were injected during four consecutive days, and behavioral tests were performed on day 5, without additional injection.\nThe animals were individually placed in a non-escapable cylinder (height 30 cm, diameter 15 cm) filled with 15-cm water at 22 ± 1 °C. The trial was conducted for 6 min. The total period of immobility was manually measured during the last 4 min of the test. A mouse was considered immobile when it remained floating with only slight movements to keep its head above water."}, "[3]": {"test_system": "C57Bl/6J mice", "conditions": "10 μg/kg i.v. once a day for 4 days, test on day 5, mean ± SEM; saline 305.00 ± 62.47 s", "method": "Naïve male C57Bl/6J mice from 7 to 9 weeks old were used in all experiments (Janvier Laboratory, Saint Berthevin, France). Mice were housed (10 animals per cage) under a 12:12 light–dark cycle (light on at 8:00 am) in a ventilated room at a temperature of 22 ± 1 °C. Animals had free access to water and food (A03; SAFE, Augy, France).\nas §4\nThe NSF paradigm is a 2-day test protocol. On day 1, mice were deprived from food. On day 2, mice were placed in a highly brightly lit area, in a plastic box (45 × 45 × 20 cm), with a floor covered with wooden bedding. The test was carried out during a 10-min period. During this time, the latency to eat was measured. During the test, a single pellet of food was placed in the center of the box, on a white platform."}, "[4]": {"test_system": "C57Bl/6J mice", "conditions": "10 μg/kg i.v. for four consecutive days, hippocampal dentate gyrus", "method": "One day after 5-bromo-2′-deoxyuridine (BrdU) injections, 12 mg per animal divided in four bolus of 300 μL injected every 2 h, mice were anesthetized with isoflurane and transcardially perfused with 20 mL of NaCl 0.9 % followed by 20 mL paraformaldehyde 4 %/NaCl 0.9 %. By using a vibratome (Leica), brains were cut into 40-μm sections, throughout the entire hippocampus. […] For each BrdU labeling, slices were first incubated with a mouse monoclonal anti-BrdU antibody (1/8,000, Becton Dickinson). For chromogenic immunodetection, sections were incubated during 2 h in biotin-conjugated species-specific secondary antibodies (1/400; Vector laboratories) followed by a peroxidase-avidin complex solution, to amplify the reaction. The peroxidase activity of immune complex was visualized with DAB staining using the VectaStain ABC kit according to the manufacturer’s protocol (Vector Laboratories)."}, "[5]": {"molecular_target": "T1, human TREK-1 channel", "assay": "cell-based", "method": "as §1, §2, §3"}, "[6]": {"test_system": "C57Bl/6J mice", "conditions": "water bath 48 °C, 10 μg/kg i.v. 30 min before the test, n = 10 per group, two determinations averaged, mean ± SEM; saline 12.75 ± 0.96 s", "method": "The tail was immersed in a water bath at 48 °C until withdrawal was observed (cutoff time 30 s). Two separate withdrawal latency time determinations were averaged (Alloui et al. [2006]).\nFor each mouse, the time to withdraw its tail immersed in a water bath at 48 °C was measured twice and averaged."}, "[7]": {"test_system": "C57Bl/6J mice", "conditions": "10^-5 M in 100 μL bolus i.v. 30 min before the test, monitored 24 h, n = 8 per group", "method": "Locomotor activity was monitored individually for 24 h using an infrared photobeam activity monitoring system (Imetronic, Pessac, France), which measured consecutive horizontal beam breaks. […] Locomotor activity was defined as breaking of consecutive photobeams. Movements were recorded and totalized for each 10-min time section. Six periods were pooled to obtain data for 1 h of time. Different movements were monitored: the coming-and-going between the back and the front of the cage, climbing, and other movements in the back or the front of the cage. Mice were kept under standard laboratory conditions: 12:12 light–dark cycle with free access to food and water during the experiment.\nMice were injected 30 min before to be placed in an infrared photobeam activity monitoring system. Spontaneous locomotor activity was monitored individually for 24 consecutive hours. The number of coming-and-going (a), climbing (b), and total movements except climbing (c) were monitored for each mouse for 10 min section and pooled by 6 to obtain values corresponding to 1 h."}, "[8]": {"molecular_target": "human-IKS current (Homo sapiens, UniProt P51787)", "sequence (P51787 whole entry)": "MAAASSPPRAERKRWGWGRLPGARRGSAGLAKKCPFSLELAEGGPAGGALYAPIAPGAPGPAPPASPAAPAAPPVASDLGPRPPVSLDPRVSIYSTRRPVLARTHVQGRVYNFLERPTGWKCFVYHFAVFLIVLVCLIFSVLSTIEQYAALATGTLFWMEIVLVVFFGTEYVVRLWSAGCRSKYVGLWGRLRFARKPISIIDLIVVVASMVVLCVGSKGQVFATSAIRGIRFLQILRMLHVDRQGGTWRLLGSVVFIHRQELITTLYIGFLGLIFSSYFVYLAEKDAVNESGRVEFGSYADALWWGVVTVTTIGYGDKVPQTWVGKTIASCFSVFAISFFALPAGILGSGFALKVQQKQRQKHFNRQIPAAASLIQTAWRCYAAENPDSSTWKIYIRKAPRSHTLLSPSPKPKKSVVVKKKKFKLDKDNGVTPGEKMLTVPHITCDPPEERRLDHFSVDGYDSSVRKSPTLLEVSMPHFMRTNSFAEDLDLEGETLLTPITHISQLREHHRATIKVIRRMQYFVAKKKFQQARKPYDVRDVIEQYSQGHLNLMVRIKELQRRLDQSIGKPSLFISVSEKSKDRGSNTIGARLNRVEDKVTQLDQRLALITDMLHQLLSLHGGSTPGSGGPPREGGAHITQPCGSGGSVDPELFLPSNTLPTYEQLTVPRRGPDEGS", "conditions": "10 μM", "method": "as §1\nAll electrophysiological recordings were performed in whole cell configuration of the patch clamp technique except for IKS measures which were obtained by using the patch clamp perforated configuration (amphotericin B 0.9 mg/mL in the pipette medium) (Moha ou Maati et al. [2011b]). Each current was evaluated by using a RK 400 patch clamp amplifier (Axon Instrument, USA), low-pass filtered at 3 kHz, and digitized at 10 kHz using a 12-bit analog-to-digital converter digidata (1322 series, Axon Instrument, USA). All current amplitudes are expressed in current densities. Results are expressed as mean ± standard error of the mean (SEM). […] The bath solution contained (in mM) 150 NaCl, 5 KCl, 3 MgCl2, 1 CaCl2, and 10 4-(2-hydroxyethyl)piperazine 1- ethane sulfonic acid (HEPES) adjusted to pH 7.4 with NaOH. The pipette solution contained (in mM) 155 KCl, 3 MgCl2, 5 EGTA, and 10 HEPES adjusted to pH 7.2 with KOH. […] Stimulation protocols and data acquisition were carried out using a microcomputer (Dell Pentium) with a commercial software and hardware (pClamp 8.2). […] Cells were continuously superfused with microperfusion system.\nIKS currents were activated by voltage clamp steps of membrane potentials from −100 to +100 mV in 20-mV steps applied from a holding potential of −80 mV. Tail currents were generated by repolarization to −40 mV. Duration of both depolarization and repolarization pulses was 2.4 s, and the pulse cycling rate was 10 s. […] The amplitudes of IKS and IKR currents were calculated at both the end of the first pulse and the peak of the tail pulse."}, "[9]": {"molecular_target": "hERG channel (IKR) (Homo sapiens, UniProt Q12809)", "sequence (Q12809 whole entry)": "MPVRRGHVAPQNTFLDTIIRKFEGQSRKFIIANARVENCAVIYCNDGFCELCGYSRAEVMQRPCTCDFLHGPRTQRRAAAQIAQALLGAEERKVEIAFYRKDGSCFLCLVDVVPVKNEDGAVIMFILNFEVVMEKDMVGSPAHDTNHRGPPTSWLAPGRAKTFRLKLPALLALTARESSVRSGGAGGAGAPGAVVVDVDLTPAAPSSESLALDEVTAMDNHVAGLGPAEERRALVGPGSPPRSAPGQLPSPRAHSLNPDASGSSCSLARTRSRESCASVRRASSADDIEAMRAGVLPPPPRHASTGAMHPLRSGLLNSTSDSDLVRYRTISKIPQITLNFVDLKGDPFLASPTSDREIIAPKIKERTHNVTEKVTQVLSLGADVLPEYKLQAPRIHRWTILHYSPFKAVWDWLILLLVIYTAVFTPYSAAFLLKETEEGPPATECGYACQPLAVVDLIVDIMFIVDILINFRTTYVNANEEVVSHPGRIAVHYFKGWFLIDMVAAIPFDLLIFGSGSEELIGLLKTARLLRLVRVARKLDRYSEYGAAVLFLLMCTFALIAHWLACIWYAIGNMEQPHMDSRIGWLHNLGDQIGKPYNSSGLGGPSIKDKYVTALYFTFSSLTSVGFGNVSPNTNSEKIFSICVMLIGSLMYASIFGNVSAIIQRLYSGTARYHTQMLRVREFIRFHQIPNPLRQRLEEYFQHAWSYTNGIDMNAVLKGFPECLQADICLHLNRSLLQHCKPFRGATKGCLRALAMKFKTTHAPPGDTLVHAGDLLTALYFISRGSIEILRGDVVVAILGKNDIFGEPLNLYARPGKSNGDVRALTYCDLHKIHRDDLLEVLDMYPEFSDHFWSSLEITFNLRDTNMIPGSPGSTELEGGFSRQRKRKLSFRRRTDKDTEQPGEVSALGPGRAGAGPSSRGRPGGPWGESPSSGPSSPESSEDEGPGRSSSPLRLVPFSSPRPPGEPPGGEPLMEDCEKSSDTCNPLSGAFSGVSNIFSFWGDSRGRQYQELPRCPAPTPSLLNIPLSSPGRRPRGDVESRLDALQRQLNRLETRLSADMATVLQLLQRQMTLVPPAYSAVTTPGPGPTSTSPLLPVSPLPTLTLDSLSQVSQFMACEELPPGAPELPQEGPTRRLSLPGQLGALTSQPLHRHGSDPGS", "conditions": "10 μM", "method": "HEK-293 native cells were grown in serum in an atmosphere of 95 % air/5 % CO2 in Dulbecco’s modified Eagle’s medium supplemented with 10 % (v/v) heat-inactivated fetal bovine containing 1 % (v/v) of penicillin/ streptomycin and Glutamax X 1. Cells were plated at a density of 20,000 cells/35 mm dish, and after 24 h, cells were transfected using the Jet PEI method (Polyplus, France) with 25 ng/35 mm dish of p-IRES-HERG channel vector. Patch clamp experiments were carried out 48 h after transfection.\nAll electrophysiological recordings were performed in whole cell configuration of the patch clamp technique except for IKS measures which were obtained by using the patch clamp perforated configuration (amphotericin B 0.9 mg/mL in the pipette medium) (Moha ou Maati et al. [2011b]). Each current was evaluated by using a RK 400 patch clamp amplifier (Axon Instrument, USA), low-pass filtered at 3 kHz, and digitized at 10 kHz using a 12-bit analog-to-digital converter digidata (1322 series, Axon Instrument, USA). All current amplitudes are expressed in current densities. Results are expressed as mean ± standard error of the mean (SEM). […] The bath solution contained (in mM) 150 NaCl, 5 KCl, 3 MgCl2, 1 CaCl2, and 10 4-(2-hydroxyethyl)piperazine 1- ethane sulfonic acid (HEPES) adjusted to pH 7.4 with NaOH. The pipette solution contained (in mM) 155 KCl, 3 MgCl2, 5 EGTA, and 10 HEPES adjusted to pH 7.2 with KOH. […] Stimulation protocols and data acquisition were carried out using a microcomputer (Dell Pentium) with a commercial software and hardware (pClamp 8.2). Currents were recorded by voltage clamp steps to membrane potentials of −100 to +60 mV in 20-mV steps applied from a holding potential of −80 mV. The duration of depolarization pulses was 825 ms, and the pulse cycling rate was 5 s. […] Cells were continuously superfused with microperfusion system.\nTail currents were generated by repolarization to −40 mV. […] The amplitudes of IKS and IKR currents were calculated at both the end of the first pulse and the peak of the tail pulse."}, "[10]": {"test_system": "C57Bl/6J mice", "conditions": "kaïnate 25 mg/kg i.p.", "method": "Kaïnate solutions were prepared in a solution of 140 mM NaCl (saline solution).\nMice (n = 10 per group) were monitored during 2 h for onset and extent of seizures. Six levels of seizure severity were defined: (1) immobility, (2) head/neck movements, (3) clonic unilateral activity, (4) clonic bilateral activity, (5) generalized convulsions, and (6) death. Seizure severity was blindly scored (Tsirka et al. [1995]). The seizure index was calculated by averaging the points for seizure activity in each group (n = 10 per treatment)."}}, "note": "Non-standard residues stand in square brackets, D forms with d. Residues, ends and D or L forms follow the SMILES beside them."}
{"compound": "Ac-[dR][dR][dW][dR]GG[dR][dP][dF][dA]GG[dA][dA][dA][dA][dR][dL]G[dW][dS][dV]G[dI][dP]G[dS][dW][dR][dP][dL][dP][dA][dA][dP][dP][dP][dP][dA][dD][dL][dR][dD][dQ]-NH2 [analog 12]", "values": [{"measurement": "TREK-1 blockade at 100 nM compared with spadin (in words)", "setting": "[1]", "value": "did not display a better efficacy"}]}
{"compound": "spadin [reference compound]", "values": [{"measurement": "FST immobility time, subchronic treatment", "setting": "[2]", "value": "123.70 ± 7.16", "unit": "s"}, {"measurement": "FST immobility time, acute treatment", "setting": "[2]", "value": "107.40 ± 5.05", "unit": "s"}, {"measurement": "FST immobility time 1 h after injection (action duration)", "setting": "[2]", "value": "102.4 ± 6.2", "unit": "s"}, {"measurement": "FST immobility time 3 h after injection (action duration)", "setting": "[2]; 3 h after injection (order of values follows order of times), saline 170.3 ± 4.5 s", "value": "113.2 ± 5.0", "unit": "s"}, {"measurement": "FST immobility time 7 h after injection (action duration)", "setting": "[2]; 7 h after injection (order of values follows order of times), saline 170.3 ± 4.5 s", "value": "150.8 ± 6.5", "unit": "s"}, {"measurement": "FST immobility time 16 h after injection (action duration)", "setting": "[2]", "value": "175.3 ± 7.5", "unit": "s"}, {"measurement": "Biological half-life time measured by the FST", "setting": "[2]; from loss of FST efficacy with time after injection", "value": "around 6 h"}, {"measurement": "NSF latency to feed, subchronic treatment", "setting": "[3]", "value": "151.11 ± 17.70", "unit": "s"}, {"measurement": "Increase of the number of BrdU-positive cells in SGZ versus saline (factor)", "setting": "[4]", "value": "≥ 2"}]}
{"compound": "CC[C@@H](C)[C@@H](NC(=O)CNC(=O)[C@H](NC(=O)[C@@H](CO)NC(=O)[C@@H](Cc1c[nH]c2ccccc12)NC(=O)CNC(=O)[C@@H](CC(C)C)NC(=O)[C@@H](CCCNC(=N)N)NC(C)=O)C(C)C)C(=O)N1CCC[C@@H]1C(=O)NCC(=O)N[C@H](CO)C(=O)N[C@H](Cc1c[nH]c2ccccc12)C(=O)N[C@H](CCCNC(=N)N)C(=O)N1CCC[C@@H]1C(=O)N[C@H](CC(C)C)C(=O)N1CCC[C@@H]1C(=O)N[C@H](C)C(=O)N[C@H](C)C(=O)N1CCC[C@@H]1C(=O)N1CCC[C@@H]1C(=O)N1CCC[C@@H]1C(=O)N1CCC[C@@H]1C(=O)N[C@H](C)C(=O)N[C@H](CC(=O)O)C(=O)N[C@H](CC(C)C)C(=O)N[C@H](CCCNC(=N)N)C(=O)N[C@H](CC(=O)O)C(=O)N[C@H](CCC(N)=O)C(N)=O", "note": "[analog 8] (Ac-[dR][dL]G[dW][dS][dV]G[dI][dP]G[dS][dW][dR][dP][dL][dP][dA][dA][dP][dP][dP][dP][dA][dD][dL][dR][dD][dQ]-NH2)", "values": [{"measurement": "IC50", "setting": "[5]", "value": "0.00995 ± 0.00085", "unit": "µM"}, {"measurement": "FST immobility time, subchronic treatment", "setting": "[2]", "value": "124.1 ± 10.53", "unit": "s"}, {"measurement": "FST immobility time, acute treatment", "setting": "[2]", "value": "83.60 ± 9.01", "unit": "s"}, {"measurement": "FST immobility time 1 h after injection (action duration)", "setting": "[2]", "value": "121.7 ± 5.2", "unit": "s"}, {"measurement": "FST immobility time 16 h after injection (action duration)", "setting": "[2]", "value": "129.1 ± 12.0", "unit": "s"}, {"measurement": "Tail withdrawal time", "setting": "[6]", "value": "13.85 ± 0.72", "unit": "s"}, {"measurement": "NSF latency to feed, subchronic treatment", "setting": "[3]", "value": "167.00 ± 22.96", "unit": "s"}, {"measurement": "TREK-1 blockade at 100 nM compared with spadin (in words)", "setting": "[1]", "value": "increased blockade effect when compared to spadin"}]}
{"compound": "Ac-QDRLDAPPPPAAPLPRWSGPIGVSWGLRAAAAGGAFPRGGRWRR-NH2 [analog 11]", "values": [{"measurement": "TREK-1 blockade at 100 nM compared with spadin (in words)", "setting": "[1]", "value": "reduced blocking effect on TREK-1 channels"}]}
{"compound": "Ac-APPPPAAPLPRWSGPIGVSWGLR-NH2 [analog 9]", "values": [{"measurement": "TREK-1 blockade at 100 nM compared with spadin (in words)", "setting": "[1]", "value": "inhibitory effect close to that of spadin"}]}
{"compound": "CC[C@H](C)[C@H](NC(=O)[C@@H]1CCCN1C(=O)CNC(=O)[C@H](CO)NC(=O)[C@H](Cc1c[nH]c2ccccc12)NC(=O)[C@H](CCCNC(=N)N)NC(=O)[C@@H]1CCCN1C(=O)[C@H](CC(C)C)NC(=O)[C@@H]1CCCN1C(=O)[C@H](C)NC(=O)[C@H](C)NC(=O)[C@@H]1CCCN1C(=O)[C@@H]1CCCN1C(=O)[C@@H]1CCCN1C(=O)[C@@H]1CCCN1C(=O)[C@H](C)NC(=O)[C@H](CC(=O)O)NC(=O)[C@H](CC(C)C)NC(=O)[C@H](CCCNC(=N)N)NC(=O)[C@H](CC(=O)O)NC(=O)[C@H](CCC(N)=O)NC(C)=O)C(=O)NCC(=O)N[C@H](C(=O)N[C@@H](CO)C(=O)N[C@@H](Cc1c[nH]c2ccccc12)C(=O)NCC(=O)N[C@@H](CC(C)C)C(=O)N[C@@H](CCCNC(=N)N)C(N)=O)C(C)C", "note": "[analog 7]", "values": [{"measurement": "TREK-1 blockade at 100 nM compared with spadin (in words)", "setting": "[1]", "value": "bad inhibitor of TREK-1 channels"}]}
{"compound": "Ac-APLPRWSGPIGVSWGLR-NH2 [analog 2]", "values": [{"measurement": "IC50", "setting": "[5]", "value": "0.06 ± 0.00041", "unit": "µM"}]}
{"compound": "CC[C@@H](C)[C@@H](NC(=O)CNC(=O)[C@H](NC(=O)[C@@H](CO)NC(=O)[C@@H](Cc1c[nH]c2ccccc12)NC(=O)CNC(=O)[C@@H](CC(C)C)NC(=O)[C@@H](CCCNC(=N)N)NC(C)=O)C(C)C)C(=O)N1CCC[C@@H]1C(=O)NCC(=O)N[C@H](CO)C(=O)N[C@H](Cc1c[nH]c2ccccc12)C(=O)N[C@H](CCCNC(=N)N)C(=O)N1CCC[C@@H]1C(=O)N[C@H](CC(C)C)C(=O)N1CCC[C@@H]1C(=O)N[C@H](C)C(N)=O", "note": "[analog 3] (Ac-[dR][dL]G[dW][dS][dV]G[dI][dP]G[dS][dW][dR][dP][dL][dP][dA]-NH2)", "values": [{"measurement": "Locomotor activity versus saline-treated mice (coming-and-going, climbing, total movements)", "setting": "[7]", "value": "no significant difference"}, {"measurement": "Effect on IKS current", "setting": "[8]; HEK-IKS cells", "value": "did not modify currents"}, {"measurement": "IKS tail current density at 0 mV in the presence of the analog", "setting": "[8]; n = 5, mean ± SEM, control 8.33 ± 1.78 pA/pF", "value": "8.33 ± 2.06", "unit": "pA/pF"}, {"measurement": "IKS current density at 0 mV, end of pulse, in the presence of the analog", "setting": "[8]; n = 5, mean ± SEM, control 17.65 ± 3.84 pA/pF", "value": "17.58 ± 4.03", "unit": "pA/pF"}, {"measurement": "Effect on IKR current", "setting": "[9]; HEK cells expressing hERG", "value": "did not modify currents"}, {"measurement": "IKR tail current density at 0 mV in the presence of the analog", "setting": "[9]; n = 5, mean ± SEM, control 204.59 ± 34.18 pA/pF", "value": "212.99 ± 38.38", "unit": "pA/pF"}, {"measurement": "IKR current density at 0 mV, end of first pulse, in the presence of the analog", "setting": "[9]; n = 5, mean ± SEM, control 225.14 ± 33.09 pA/pF", "value": "224.48 ± 35.94", "unit": "pA/pF"}, {"measurement": "IC50", "setting": "[5]", "value": "0.0115 ± 0.00059", "unit": "µM"}, {"measurement": "FST immobility time, subchronic treatment", "setting": "[2]", "value": "114.9 ± 9.82", "unit": "s"}, {"measurement": "FST immobility time, acute treatment", "setting": "[2]", "value": "135.10 ± 8.11", "unit": "s"}, {"measurement": "FST immobility time 1 h after injection (action duration)", "setting": "[2]", "value": "123.4 ± 7.0", "unit": "s"}, {"measurement": "FST immobility time 16 h after injection (action duration)", "setting": "[2]", "value": "129.6 ± 12.7", "unit": "s"}, {"measurement": "Tail withdrawal time", "setting": "[6]", "value": "11.32 ± 1.04", "unit": "s"}, {"measurement": "NSF latency to feed, subchronic treatment", "setting": "[3]", "value": "143.88 ± 23.42", "unit": "s"}, {"measurement": "Effect on kaïnate-triggered seizures, 1 μg/kg", "setting": "[10]; 1 μg/kg i.v., n = 10", "value": "no protective effect"}, {"measurement": "Effect on kaïnate-triggered seizures, 10 μg/kg", "setting": "[10]; 10 μg/kg i.v., n = 10, monitored 2 h", "value": "important protective effect"}, {"measurement": "Number of mice reaching the two less severe seizure stages (immobility, head or neck movements)", "setting": "[10]; 10 μg/kg i.v., n = 10, saline: at least 9 among 10, five died", "value": "two mice among 10"}, {"measurement": "Amount recovered in a half brain", "setting": "10 nmol i.v. (100 μL of 100 μM, caudal vein), 30 min after injection, acidic extraction, RP18 HPLC, standard curve 50-200 pmol, estimated", "value": "~100", "unit": "pmol"}, {"measurement": "Yield to cross the blood-brain-barrier", "setting": "10 nmol i.v., 30 min after injection, amount per brain relative to injected amount", "value": "~2", "unit": "%"}, {"measurement": "Amount recovered per brain", "setting": "10 nmol i.v., 30 min after injection, extrapolated from a half brain", "value": "~200", "unit": "pmol"}, {"measurement": "HPLC peak in brain extract 60 min after injection", "setting": "10 nmol i.v., 60 min after injection", "value": "disappeared after 60 min"}, {"measurement": "TREK-1 blockade at 100 nM compared with spadin (in words)", "setting": "[1]", "value": "increased blockade effect when compared to spadin"}]}
